Test results published in paper PMC12526212, “Novel Isolongifolenone-Based Caprolactam Derivatives as Potential Anticancer Agents via the p53/mTOR/Autophagy Pathway” (Molecules, 2025).

How the values were obtained:
A549 = experiment: CCK-8 antiproliferative assay, A549; assay type: cell-based; conditions: Homo sapiens, A549; CCK-8, 48 h, mean ± SD of three experiments; read-out: IC50 A549
Method: After synthesis and characterization, the isolongifolenone bicyclocaprolactam derivatives were evaluated for their in vitro antiproliferative activity against three cancer cell lines (MCF-7, HepG2, A549) using a CCK-8 assay. […] In general, the antiproliferative activities of most of these compounds were similar, irrespective of whether electron-withdrawing or electron-donating substituents were introduced in the phenoxy ring.
Three cancer cell lines (human breast adenocarcinoma cells MCF-7, human lung adenocarcinoma epithelial cells A549, and human hepatocellular carcinoma cells HepG2) were obtained from the Cell Bank of the Chinese Academy of Sciences (Shanghai, China). LO2 human normal liver cells were also purchased from STEM RECELL (Beijing, China, STM-CL-5770). The anti-proliferation activity of compounds was tested on three cancer cell lines. The cytotoxicity of compounds as tested on normal cell line (human normal liver cells LO2). Cells were seeded at a density of 5000 cells per well in 96-well plates. Natural product piperlongumine was used as the positive control. All experiments were performed in triplicate. Three cancer cell lines were cultured in High DMEM medium or RIPM 1640 containing 10% FBS (Sijiqing, Hangzhou, China) and 1% antibiotics at 37 °C in a 5% CO2 incubator. The experimental cells were seeded in a 96-well plate at 5000 cells per well and incubated for 24 h. The old medium was replaced with experimental medium, and the cells were cultured for 48 h. Afterward, 10 µL of CCK-8 solution was added to each well, and the cells were incubated for 3 h. The absorbance at 450 nm was measured using a microplate reader.

MCF-7 cells [1] = experiment: Annexin V/PI apoptosis assay by flow cytometry; assay type: cell-based, human
Method: The ability of drugs to induce cancer cell apoptosis is a key indicator of their chemotherapeutic potential. […] To examine the apoptotic effects of E10, an Annexin V-FITC dual-staining assay (with flow cytometric analysis) was performed. As shown in Figure 3A (also Figure 3C), treatment with increasing concentrations of E10 induced a marked elevation in apoptotic cell populations.
Autophagy has bidirectional regulation effects on cell survival. To confirm the role of autophagy in E10-induced cell death, 3-MA was used as an autophagy blocker.
MCF-7 cells were seeded at a density of 6 × 10^5 cells per well in 12-well plates and incubated in a 37 °C, 5% CO2 incubator for 24 h. After treatment with different concentrations of compound E10, the cells were washed with PBS two times, collected by trypsin enzymic digestion and centrifugation, and the collected cells were subsequently stained with 5 µL Annexin V-APC (YSRIBIO-C1084) and 5 µL PI for 10 min in the dark conditions. The cell apoptosis was measured with the flow cytometry (BD), and the data were analyzed by flowjo 10.6 software.

MCF-7 cells [2] = experiment: Western blotting of autophagy, AMPK-mTOR and apoptosis proteins; assay type: cell-based, human
Method: MCF-7 exponentially growing cells were plated in 6-well plates (2 × 10^5 cells/well). Then, derivatives E10 (0.5, 1.0 and 2.0 μM) were added to the well. After incubation for an additional 48 h, the cell culture medium was removed, and the cells were washed twice with ice-cold PBS. Subsequently, the cells were lysed to extract the total protein and centrifuged at 12,000 rpm for 5 min at 4 °C using lysis buffer (Beyotime, Shanghai, China, Cat. # P0013E). All protein concentrations were determined using a BCA kit. Equal amounts of protein (20–30 µg per lane) were loaded onto the gel. An equal amount of protein was analyzed using 12% SDS-PAGE gels and transferred to Hybond-P membrane containing polyvinylidene difluoride (PVDF). The membranes were then blocked with BSA for 2 h at room temperature and incubated with primary antibodies against p-mTOR (ImmunoWay Biotechnology, Beijing, China, YP1444, 1:5000), P62 (Proteintech Group, Inc., Wuhan, China, 60268-1-IG, 1:5000), LC3-I/II (Proteintech Group, Inc., Wuhan, China, 10253-2-AP, 1:5000) and p-AMPK, AMPK, Bcl-2, Bax, Cleaved-caspase 7 (ImmunoWay Biotechnology, Beijing, China, YP0251, 1:5000) overnight at 4 °C and with secondary antibodies (AP-conjugated goat anti-rabbit or anti-mouse, 1:10,000) for 2 h. Densitometry was performed in ImageJ 2 within the linear range. Targets were normalized to β-actin (or to the corresponding total protein for phospho-target), then expressed relative to vehicle (0.1% DMSO = 1.0). Where indicated, ratios such as LC3-II/LC3-I and Bax/Bcl-2 were calculated per lane before statistics.

[3] = test system: MCF-7 multicellular tumor spheroids; experiment: 3D spheroid tumor model (calcein AM/PI); assay type: cell-based, human; conditions: E10 1, 5 and 10 μM, 4 days
Description: Three-dimensional (3D) cell culture provides an environment that allows cells to grow and interact with their surroundings in all spatial dimensions, closely mimicking the physiological conditions found in vivo [44]. […] To evaluate the long-term antitumor effects of E10 in a more physiologically relevant model, a 3D spheroid tumor model was established using MCF-7 breast cancer cells. Each spheroid was formed by approximately 2000 MCF-7 cells and cultured for 3 days to allow spheroid maturation. These spheroids were subsequently treated with varying concentrations of E10 (1, 5, and 10 μM) at 48-h intervals over a period of 4 days. For visualization, the multicellular tumor spheroids (MCTSs) were stained with calcein AM and propidium iodide (PI) in culture medium for 1.5 h. The live/dead cell distribution within the spheroids was then visualized using laser scanning confocal microscopy. […] This limited cell death is likely attributable to hypoxic and nutrient-deprived conditions resulting from excessive cell proliferation.
[…] MCF-7 cells were seeded into cell-repellent 96-well U-bottom plates (Sbio, Tokyo, Japan) at a density of 3000 cells per well and cultured for 72 h to promote spheroid formation. […] After treatment, spheroids were stained with 5 μM PI and 10 μM Calcein-AM, and observed under a fluorescence microscope (Olympus, Tokyo, Japan).

[4] = Figure 6A, E10 or E10 + 3MA, 24 h

CC1(C)C2=CC(=O)N(C(=O)C=Cc3cccc(C(F)(F)F)c3)CC(C)(C)C23CCC1C3 (stereo not shown) [E10, 5,5,9,9-Tetramethyl-3-(3-(3-(trifluoromethyl)phenyl)acryloyl)-4,5,6,7,8,9-hexahydro-5a,8-methanobenzo[d]azepin-2(3H)-one]
IC50 (A549): 1390 ± 320 nM | apoptosis rate (MCF-7 cells [1]; E10 0.5 µM, 24 h): 7.78% | apoptosis rate (MCF-7 cells [1]; E10 1.0 µM, 24 h): 19.53% | apoptosis rate (MCF-7 cells [1]; E10 2.0 µM, 24 h): 24.93% | Q1 necrotic cells (MCF-7 cells [1]; [4]): 15.9 | Q2 late apoptotic cells (MCF-7 cells [1]; [4]): 9.62 | Q3 early apoptotic cells (MCF-7 cells [1]; [4]): 0.47 | Q4 viable cells (MCF-7 cells [1]; [4]): 74.0 | cell apoptosis with or without autophagy blocker 3-MA (MCF-7 cells [1]; Figure 6A, in comparison with control): significantly increased | AMPK phosphorylation levels (MCF-7 cells [2]; E10 0.5, 1.0, 2.0 μM): increased | mTOR phosphorylation levels (MCF-7 cells [2]; E10 0.5, 1.0, 2.0 μM): strongly decreased | p62 expression (MCF-7 cells [2]; E10 0.5, 1.0, 2.0 μM): decrease | LC3-I and LC3-II expression levels (MCF-7 cells [2]; after E10 treatment): up-regulated | Bax expression (MCF-7 cells [2]; compared with control): higher levels | Bcl-2 expression (MCF-7 cells [2]; compared with control): down-regulated | cleaved caspase-7 expression (MCF-7 cells [2]; dose-dependent): dramatically up-regulated | p53 expression (MCF-7 cells [2]; dose-dependent): dramatically up-regulated | ratio of LC3-II/LC3-I (MCF-7 cells [2]; increasing concentrations of E10 (0.5, 1.0, 2.0 μM)): increased gradually | viability and structural integrity of MCF-7 MCTSs [3]: dose-dependent inhibitory effect
